Experimental data from a melting point compilation (Tetko et al.; mined from patent text by program, amines drawn as free bases though some values may be those of a salt).

First: CCOC(=O)c1ccc2cc(-c3ccc(OC)cc3)ccn2c1=O
Second: COCCOc1nc2cc(-c3ccc(OC)cc3)nnc2c2ccccc12
The melting point of the first is higher: 205 to 209 °C for the first, 148 to 150 °C for the second.

First: COc1ccc(S(=O)(=O)Nc2c(Cl)cncc2Cl)c2c1oc1ccccc12
Second: CC(=O)Nc1ccc(Oc2ccccc2)c2c(=O)c3ccccc3n(C)c12
The melting point of the first is lower: 242 to 244 °C for the first, 252 to 254 °C for the second.

First: O=C1OC(=O)c2nc(C(Cl)(Cl)Cl)ccc21
Second: O=Cc1ccc2c(c1)C(=O)OC2
The melting point of the first is lower: 126 to 127 °C for the first, 134 °C for the second.

Compared with `CCCOc1ccccc1C(=O)Nc1ccncc1C(N)=O`, `CC(=O)Nc1ncc(-c2ccc(=O)n(C(C)C)n2)c(-c2ccccc2)n1` is higher in melting point: 135 to 136 °C for the first, 209 to 210 °C for the second.

Compared with `CCc1c(C)nc2n(c1=O)C(C)CCC2=NNc1ccccc1` (stereo not drawn), `CCOCCc1c(-c2ccccc2)nc(Br)n2ncnc12` is higher in melting point: 135 to 137 °C for the first, 159 to 160 °C for the second.

First: Cc1cc2nc(S(=O)Cc3ccccc3N)[nH]c2cc1C (stereo not drawn)
Second: Clc1nc2ccccc2cc1CBr
The melting point of the first is higher: 179 to 181 °C for the first, 125 °C for the second.

First: CC(=O)OCc1ccc(C(=O)O)cc1
Second: CSC(=NC(=O)OCc1ccccc1)NNC(=O)NC(=O)OCc1ccccc1
The melting point of the first is lower: 120 to 123 °C for the first, 165 to 166 °C for the second.

First: O=S(=O)(c1ccccc1)n1ccc2ccc3c4cc(Br)ccc4[nH]c3c21
Second: CN(Cc1ccc2c(Br)c(OCC#N)ccc2c1)C(=O)c1cn(C)c2ccccc12
The melting point of the first is higher: 173 to 175 °C for the first, 148 to 150 °C for the second.

First: CC(C)COc1c(-c2ccc(S(C)(=O)=O)cc2)cnn(-c2cccc(Cl)c2)c1=O
Second: O=C(c1cccc(Cl)c1)C1C(=O)c2ccccc2C1=O
The melting point of the first is higher: 166 to 169 °C for the first, 148 to 149 °C for the second.

Compared with `O=S1N=CC(NCc2ccncc2)=N1` (stereo not drawn), `Fc1ccc(Cc2ccccc2N2CCN(c3ccncc3)CC2)cc1` is lower in melting point: 129 to 130 °C for the first, 110 to 111 °C for the second.

Compared with `COc1cc2c(c3c1OC(C)(C)C3)C(c1ccc(=O)[nH]c1)=NC(C)(C)C2`, `COc1cc2nc(N3CCN(C(=O)C=Cc4ccc(N(C)C)cc4)CC3)nc(N)c2cc1OC` is higher in melting point: 195 to 196 °C for the first, 288 to 289 °C for the second.

Compared with `O=C(NC1N=C(c2ccccc2)c2ccccc2NC1=O)c1c[nH]c2ccccc12` (racemic), `O=C(O)c1cc(-n2c(-c3ccccc3)cc3c2CCc2ccccc2-3)ccc1O` is lower in melting point: 265 to 268 °C for the first, 223 to 225 °C for the second.

First: CCC(=O)N[C@@H](C)C(=O)N1CCC[C@H]1C(=O)NC(C)C
Second: CC(=O)SCCC(=O)[C@H]1CC[C@H]1C(=O)O (relative stereo)
The melting point of the first is higher: 173 to 175 °C for the first, 50 to 54 °C for the second.

First: CCCCCNC(=O)n1nc(Oc2ncc(C(F)(F)F)cc2Cl)cc1C
Second: CC(C)Oc1ccc(CCCOc2nn(C)cc2CC(=O)O)c(Oc2ncc(C(F)(F)F)cc2Cl)c1
The melting point of the first is higher: 142 to 144 °C for the first, 92 to 94 °C for the second.

First: CCCC1C(=O)Oc2c(Oc3ccccc3Cl)cccc21 (stereo not drawn)
Second: O=C(O)CCCCCCOc1cccc(-c2ccccc2)n1
The melting point of the first is lower: 51 to 53 °C for the first, 74 to 75 °C for the second.

First: NC(=O)c1c(N)sc(-c2ccc(F)cc2)c1-c1ccccc1
Second: CNC(=O)c1cc(-c2c[nH]nc2-c2ccc(F)cc2)ccn1
The melting point of the first is higher: 205 to 207 °C for the first, 88 to 89 °C for the second.

First: O=C(Nc1ccc(CCc2ccc(O)c(O)c2)cc1)C(=O)c1sc2ccccc2c1O
Second: O=C(NCc1ccc2c(Br)c(OC(Cc3ccccc3)C(=O)O)ccc2c1)c1ccc(Oc2cc(Cl)cc(Cl)c2)o1 (stereo not drawn)
The melting point of the first is higher: 193 to 195 °C for the first, 86 to 100 °C for the second.

First: O=C1OCc2c(c3cc(-c4ccc(-c5ccccc5)cc4)ccc3n2Cc2ccccc2)C1=O
Second: COc1ccc(CS[C@@H]2C[C@@H](C(=O)OCc3ccccc3)N(S(=O)(=O)c3ccc4ccccc4c3)C2)cc1
The melting point of the first is higher: 254 to 255 °C for the first, 90 to 91 °C for the second.

First: CCN(CC)CC1COCCN1CCNC(=O)N1c2ccccc2C(=O)Nc2cccnc21 (stereo not drawn)
Second: CCN(CC)CCNC(=O)Cn1c(-c2ccc(Cl)cc2)nc2cccnc21
The melting point of the first is higher: 150 to 151 °C for the first, 142 to 143 °C for the second.

First: CC(C)CCOc1c(Sc2ccc(C(C)(C)C)cc2)c(Sc2ccccc2N)c(OCCC(C)C)c2c1C(=N)NC2=N
Second: Cc1c(NC(=O)CC(C)(C)C)cc2c(c1C)OC(C)(C)C2(O)c1ccc2ccccc2c1 (stereo not drawn)
The melting point of the first is higher: 198 to 199 °C for the first, 142 to 144 °C for the second.

First: CC1(C)CCC(C)(C)c2cc(COc3c(C(=O)O)cccc3-c3ccccc3)ccc21
Second: COc1ccc(CCNC(=O)CN(C(=O)OCc2ccccc2)c2ccc(C)cc2)cc1OC
The melting point of the first is higher: 144 to 146 °C for the first, 81 to 85 °C for the second.

First: O=C(NCCCN1CCCCC1)c1ccc(-c2ccc3nnn(Cc4ccc5ncccc5c4)c3n2)cc1F
Second: CCCCOc1nc(N)c2[nH]c(=O)n(CCCCN(CCN3CCCC3)S(=O)(=O)c3cccc(CC(=O)O)c3)c2n1
The melting point of the first is lower: 135 to 137 °C for the first, 192 to 193 °C for the second.

First: CC1=Nc2c3c(C)cnc-3ccn2C1
Second: c1ccc2c(c1)Cn1cccc1-c1nccn1-2
The melting point of the first is higher: 211 °C for the first, 202 to 203 °C for the second.

First: COc1cc(Nc2c(C#N)cnc3c(Br)csc23)c(Cl)cc1Cl
Second: COc1cc(C)cc(OC)c1-c1nc(N)n[nH]1
The melting point of the first is lower: 265 to 266 °C for the first, 286 °C for the second.

Compared with `COc1cc(OC)nc(NC(=O)NS(=O)(=O)c2ccccc2CCOC(C)=O)n1`, `CCOC(=O)c1c(CN=[N+]=[N-])cccc1S(=O)(=O)NC(=O)Nc1nc(OC)cc(OC)n1` is lower in melting point: 160 to 162 °C for the first, 158 to 160 °C for the second.

First: CNc1nc(C)c(-c2ccnc(Nc3cccc(CC(=O)OCCOC)c3)n2)s1
Second: CCOC(=O)Nc1cc(F)cc(CCCCC(=O)OC)c1
The melting point of the first is higher: 193 to 195 °C for the first, 61 to 62 °C for the second.

First: CCCc1nc(C)cn1-c1cc(F)ccc1N
Second: CC=CCn1c(C)c(C)c2cnnc(SCc3c(F)cccc3Cl)c21
The melting point of the first is lower: 38 to 42 °C for the first, 95 to 117 °C for the second.

First: C#Cc1ccc(I)c(Oc2cnc(N)nc2N)c1
Second: COc1cc2c(cc1OC)CN(c1nc(N)nc3cc(OC)c(OC)cc13)CC2
The melting point of the first is lower: 156 to 159 °C for the first, 245 °C for the second.

First: O=C(O)COc1cccc2cc(COCC(c3ccccc3)c3ccccc3)oc12
Second: Oc1ccc(/C(=C(\c2ccccc2)C(F)(F)F)c2ccccc2)cc1
The melting point of the first is higher: 141 to 142 °C for the first, 113 to 120 °C for the second.

First: Cc1nnc(-c2ccc3occ(-c4cccnc4)c3c2)o1
Second: CSc1ccc2c(SCc3ccc(N(C)C)cc3)ccnc2c1
The melting point of the first is lower: 139 to 140 °C for the first, 168 to 170 °C for the second.

First: Fc1ccc(C#CCCC#Cc2ccccn2)cc1
Second: O=S(=O)(Oc1ccccc1)c1ccc(O)cc1
The melting point of the first is lower: 68 to 69 °C for the first, 114 to 116 °C for the second.

First: CCCCCCCCCCCCn1nnc(C(C(=O)Nc2c(OC)cc(OC)cc2OC)c2ccccc2)n1 (stereo not drawn)
Second: COC(=O)[C@H]1[C@H](N2C(=O)c3ccccc3C2=O)C(=O)N1Cc1ccc(OC)cc1OC (relative stereo)
The melting point of the first is lower: 119 to 120 °C for the first, 186 to 188 °C for the second.

First: CS(=O)(=O)Nc1cccc(Nc2nc(N3CCC[C@H]3CO)c3nc[nH]c3n2)c1
Second: Cc1cc(NC(=O)c2ccc(C(=O)N3CCN(c4ncccc4NC(C)C)CC3)nc2)n[nH]1
The melting point of the first is higher: 192 to 197 °C for the first, 116 to 117 °C for the second.

Compared with `N#CC1(c2ccc(OC(F)F)c(OC3CCCC3)c2)CCC(=O)CC1`, `O=S1(=O)NC(C2CCCCC2)=Nc2cccc(CO)c21` is higher in melting point: 76 to 78 °C for the first, 220 to 223 °C for the second.

First: Oc1ccc2sc(C=C3C4CC5CC(C4)CC3C5)nc2c1
Second: COC(=O)c1ccc(C23CC4CC(CC(C4)C2)C3)c(O)c1
The melting point of the first is lower: 156 to 158 °C for the first, 244 to 246 °C for the second.

First: CC(CC(=O)O)(c1ccc(OCc2ccc3ccccc3n2)cc1)c1ccc(OCc2ccc3ccccc3n2)cc1
Second: CN(CCOc1ccc(CON=C(CCC(=O)O)c2ccccc2)cc1)c1ncccn1
The melting point of the first is higher: 94 to 96 °C for the first, 72 to 73 °C for the second.

Going from `COC(OC)c1cc(O)cc(Cl)c1` to `COc1nc2ccccc2c(=O)n1O`, the melting point rises from 153 °C to 220 °C.

Compared with `NC(=O)N1CCC(c2nn(-c3ccccc3)c3cc(Cl)ccc23)CC1`, `NC(=O)c1ccc(N2CCN(Cc3cn4ccccc4n3)CC2)cc1` is higher in melting point: 148 to 150 °C for the first, 249 to 250 °C for the second.

Compared with `CCCC(NS(C)(=O)=O)P(=O)(OCCCl)OCCCl` (stereo not drawn), `CCN(CC)CCNC(=O)c1cc(Cl)c(N)cc1OCCCS(C)=O` (stereo not drawn) is higher in melting point: 69 to 72 °C for the first, 116 to 117 °C for the second.

First: CCn1c(=O)c2[nH]c(/C=C/c3cccc(OC)c3[N+](=O)[O-])nc2n(CC)c1=O
Second: CC(C)S(=O)(=O)NC(=O)c1cccc([N+](=O)[O-])c1
The melting point of the first is higher: > 285 °C for the first, 175 to 177 °C for the second.

Compared with `OC(CNCC1CCCO1)c1ccccc1` (stereo not drawn), `OC(CCc1ccccc1)c1cnc2sc3c(n12)CCCC3` (stereo not drawn) is higher in melting point: 70 to 72 °C for the first, 152 to 153 °C for the second.

First: CCOC(=O)C(C)=Cc1cn(Cc2ccc(C(=O)OC(C)(C)C)cc2OC)c2cc(C(=O)NCC3CCCC3)ccc12
Second: COc1ccc(S(N)(=O)=O)cc1C(=O)NCC1CCCN1CC1=CCCCC1 (stereo not drawn)
The melting point of the first is lower: 118 to 120 °C for the first, 167 °C for the second.

Compared with `CCn1cc(C(=O)O)c(=O)c2cc(Cl)c(N3CCCC3)cc21`, `Cc1csc(C(=O)C2C(=O)N(C(N)=O)c3ccc(Cl)nc32)c1` (stereo not drawn) is lower in melting point: 325 °C for the first, 227 to 228 °C for the second.

First: Cc1c(NC(=O)CC(C)(C)C)c(C)c2c(c1C(O)CO)OCC2c1ccc(C(C)C)cc1 (stereo not drawn)
Second: CC(C)(C)C(NC(=O)Cc1ccc2c(c1)OCCO2)NC(=NC#N)Nc1cccc2ncccc12 (stereo not drawn)
The melting point of the first is lower: 159 to 161 °C for the first, 191 to 192 °C for the second.

First: CC#CCOc1ccc(S(=O)(=O)NCCC(=O)NO)cc1
Second: CS(=O)(=O)c1ccccc1C(=O)Cl
The melting point of the first is lower: 118 to 128 °C for the first, 135 to 137 °C for the second.

First: CC1(C)Oc2ccsc2C(N2CCCC2=O)C1OC(=O)c1ccccc1 (stereo not drawn)
Second: CC1(C)C(C#CC(=O)OCC2CC2)C1C(=O)OC(C#N)c1cccc(Oc2ccccc2)c1 (stereo not drawn)
The melting point of the first is higher: 130 to 132 °C for the first, 72 °C for the second.

Compared with `CC(C)(C)NCC(O)CN1C(=O)NC(Cc2c[nH]c3ccccc23)C1=O` (stereo not drawn), `C[C@H](CSC(=O)c1ccccc1)C(=O)N1C(=O)N(Cc2ccccc2)C[C@H]1C(=O)O` is lower in melting point: 190 to 191 °C for the first, 145 °C for the second.

Compared with `CCOC(=O)N1CCC(=C2c3sccc3C=Cn3ccnc32)CC1`, `CC1(C)CC(Cc2ccc(CC3CC(C)(C)N(Cc4ccccc4)C(C)(C)C3)cc2)CC(C)(C)N1Cc1ccccc1` is higher in melting point: 176 °C for the first, 207 to 208 °C for the second.

First: O=CN(O)CCCP1(=O)ON2CCN(O1)OP(=O)(CCCN(O)C=O)O2 (stereo not drawn)
Second: CC(=O)OC1CC2=CCC3C4CCC(C(C)CCCC(C)C)C4(C)CCC3C2(C)C(OC(C)=O)C1OC(C)=O (stereo not drawn)
The melting point of the first is higher: 112 to 118 °C for the first, 109 to 110 °C for the second.
